Patent US7005258B1, “Cdc25 genes, encoded products and uses thereof” (The National Institutes of Health, priority 1991, dated 2006)

Target: T1, GST-cdc25A phosphatase (Homo sapiens, UniProt P30304)
T1 construct: made in house; host or cells: E. coli BL21(DE3)
T1 sequence (P30304 1-524): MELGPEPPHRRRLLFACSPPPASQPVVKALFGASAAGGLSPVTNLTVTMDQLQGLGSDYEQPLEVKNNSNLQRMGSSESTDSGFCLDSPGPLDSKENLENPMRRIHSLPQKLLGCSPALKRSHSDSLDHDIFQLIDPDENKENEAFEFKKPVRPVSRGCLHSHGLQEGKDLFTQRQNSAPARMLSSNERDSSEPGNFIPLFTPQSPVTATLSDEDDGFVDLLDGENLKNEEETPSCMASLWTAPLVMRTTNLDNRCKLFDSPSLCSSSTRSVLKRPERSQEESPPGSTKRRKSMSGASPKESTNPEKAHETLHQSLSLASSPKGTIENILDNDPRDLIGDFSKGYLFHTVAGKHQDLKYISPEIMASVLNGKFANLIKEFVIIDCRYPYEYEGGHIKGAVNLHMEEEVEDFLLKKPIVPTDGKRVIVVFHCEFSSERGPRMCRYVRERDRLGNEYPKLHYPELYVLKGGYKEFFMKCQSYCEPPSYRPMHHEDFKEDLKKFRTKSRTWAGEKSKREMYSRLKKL
Assay: GST-cdc25A phosphatase activity towards p-nitrophenylphosphate (microtitration plate assay)
Assay type: biochemical
Experimental: One ml assay: 100 μl of GST-cdc25A protein (diluted to an activity of ∂ OD 410 nm=0.3/10 min) were mixed with 100 μl […] (in Tris buffer A) and 700 μl of Tris buffer A. The assay was initiated by addition of 100 μl 500 mM p-NPP (in Tris buffer A). After 10 min incubation at 37° C., the assay was terminated by addition of 40 μl 5 N NaOH and transfer of the tubes to 4° C. Absorbance at 410 nm was then measured and blank values (no GST-cdc25A protein but 10 min incubation) were subtracted.
This assay was then scaled down to 200 μl and conducted semi-automatically in 96-wells microtitration plates, as described in detail below. Each well was filled with 20 μl GST-cdc25A phosphatase, 140 μl Tris buffer A, 20 μl 100 mM DTT (in Tris buffer A); after 15 min equilibration at 37° C., reaction was initiated by addition of 20 μl 500 mM p-NPP (in Tris buffer A). After 60 min incubation absorbance at 405 nm was monitored in a microplate reader; blank values (no GST-cdc25A added) were subtracted.
Microtitration plate assay: 20 μl of GST-cdc25A protein (diluted to an activity of a ∂ OD 405 nm=0.2–0.3/60 min) were mixed with 20 μl 100 mM DTT (in Tris buffer A) and 140 μl of Tris buffer A, in 96-wells microtitration plates (Corning). The plates were preincubated at 37° C. for 15 min in a Denley Wellwarm 1 microplate incubator. The assays were initiated by addition of 20 μl of 500 mM p-NPP (in Tris buffer A). After 60 min incubation at 37° C. absorbance at 405 nm was measured in a bioRad microplate reader. Blank values (no CST-cdc25A protein added) were automatically subtracted.
In a series of experiments various antimitotic compounds currently used in cancer therapy were tested as potential inhibitors of the phosphatase (the Table). Most of them are reported to act as DNA damaging agents, as DNA intercalators, as topoisomerase 2 inhibitors or as compounds interfering with spindle microtubles. […] As a positive control vanadate, a reported inhibitor of tyrosine phosphatases was also tested (Gordon, J. A., 1Methods in Enzymology pp. 447–482 (1991)).

[Na+].[Na+].[Na+].[O]=[V]([O-])([O-])[O-] [vanadate, sodium orthovanadate]
inhibition of GST-cdc25A phosphatase (at concentrations above 500 μM): totally inhibits
inhibition of cdc25 / GST-cdc25A phosphatase (summary statement) (concentration not given): totally inhibit
IC50 (p-NPP substrate, FIG. 14, read-out: I50, inhibition of GST-cdc25A phosphatase): 20 µM
